US20060069132A1, “Azolecarboxamide herbicides” (priority 2004, published 2006)

Key:
[1] = system: corn; experiment: Test B pre-/postemergence herbicide test; assay type: in vivo, Zea mays
Procedure, shortened: (§1)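 Visual rating, 0 (no effect) to 100 (complete control), versus untreated controls after 13–15 d in greenhouse. Pre- and postemergence applications (postemergence plants 2–18 cm, 1–4 leaves); flooded paddy arm at 2-leaf stage. Compounds in non-phytotoxic solvent plus surfactant.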

[2] = system: barnyardgrass; experiment: Test B flooded paddy test; assay type: in vivo, Echinochloa crus-galli; conditions: 1000 g ai/ha, visual rating, scale 0 to 100 (0 no effect, 100 complete control), 13 to 15 days
Procedure, shortened: (§2)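 Postemergence plants were sprayed with formulated test chemicals at 2 to 18 cm height (1- to 4-leaf stage); paddy species were grown to the 2-leaf stage. After 13 to 15 days in a greenhouse, injury was rated visually against untreated controls on a 0–100 scale (0 = no effect, 100 = complete control).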

[3] = system: morningglory; experiment: Test A pre-/postemergence herbicide test; assay type: in vivo, Ipomoea spp.
Procedure, shortened: (§3)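 Seeds sown in sandy loam received a preemergence directed soil spray of compound in non-phytotoxic solvent with surfactant; postemergence plants (2–10 cm, one- to two-leaf stage) were sprayed to runoff at the same time. After ~10 days in greenhouse, injury was rated visually versus untreated controls (0 = no effect, 100 = complete control).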

[4] = system: giant foxtail; experiment: Test A pre-/postemergence herbicide test; assay type: in vivo, Setaria faberi
Procedure, shortened: as §3

[5] = system: velvetleaf; experiment: Test B pre-/postemergence herbicide test; assay type: in vivo, Abutilon theophrasti
Procedure, shortened: as §1

[6] = system: pigweed; experiment: Test B pre-/postemergence herbicide test; assay type: in vivo, Amaranthus retroflexus
Procedure, shortened: as §1

[7] = system: lambsquarters; experiment: Test B pre-/postemergence herbicide test; assay type: in vivo, Chenopodium album
Procedure, shortened: as §1

[8] = system: barnyardgrass; experiment: Test A pre-/postemergence herbicide test; assay type: in vivo, Echinochloa crus-galli
Procedure, shortened: as §3

[9] = system: redroot pigweed; experiment: Test A pre-/postemergence herbicide test; assay type: in vivo, Amaranthus retroflexus
Procedure, shortened: as §3

[10] = system: wild oat; experiment: Test B postemergence herbicide test; assay type: in vivo, Avena fatua; conditions: scale 0 (no effect) to 100 (complete control)
Procedure, shortened: (§4)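 Each value is a visual 0–100 response rating taken against controls 13 to 15 days after treatment in the greenhouse. Plants received formulated chemical postemergence at the 1- to 4-leaf stage or, in flooded paddy, at the 2-leaf stage.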

[11] = system: rice; experiment: Test B flooded paddy test; assay type: in vivo, Oryza sativa; conditions: 1000 g ai/ha, visual rating, scale 0 to 100 (0 no effect, 100 complete control), 13 to 15 days
Procedure, shortened: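 Read-out: visual comparison with controls, scored 0 to 100, where 100 means complete control and 0 no effect. Formulated chemicals were applied postemergence to plants 2–18 cm tall (1- to 4-leaf), or to flooded-paddy plants at the 2-leaf stage, then held 13 to 15 days under glass.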

[12] = system: large crabgrass; experiment: Test A pre-/postemergence herbicide test; assay type: in vivo, Digitaria sanguinalis
Procedure, shortened: as §3

[13] = system: giant foxtail; experiment: Test B pre-/postemergence herbicide test; assay type: in vivo, Setaria faberi
Procedure, shortened: as §1

[14] = system: velvetleaf; experiment: Test A pre-/postemergence herbicide test; assay type: in vivo, Abutilon theophrasti
Procedure, shortened: as §3

[15] = system: small flower umbrella sedge; experiment: Test B flooded paddy test; assay type: in vivo, Cyperus difformis; conditions: 1000 g ai/ha, visual rating, scale 0 to 100 (0 no effect, 100 complete control), 13 to 15 days
Procedure, shortened: as §2

[16] = system: morningglory; experiment: Test B pre-/postemergence herbicide test; assay type: in vivo, Ipomoea coccinea
Procedure, shortened: (§5)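 Seeds were planted and treated preemergence with compounds formulated in a non-phytotoxic solvent mixture containing surfactant, while plants at the 1- to 4-leaf stage (2 to 18 cm) received postemergence sprays. Flooded paddy plants were grown to the 2-leaf stage. After 13 to 15 days in a greenhouse, injury was visually rated 0–100 against untreated controls.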

[17] = system: Surinam grass; experiment: Test B pre-/postemergence herbicide test; assay type: in vivo, Urochloa decumbens
Procedure, shortened: as §1

[18] = system: blackgrass; experiment: Test B postemergence herbicide test; assay type: in vivo, Alopecurus myosuroides; conditions: scale 0 (no effect) to 100 (complete control)
Procedure, shortened: as §2

[19] = system: barnyardgrass; experiment: Test B pre-/postemergence herbicide test; assay type: in vivo, Echinochloa crus-galli
Procedure, shortened: as §5

[20] = system: cocklebur; experiment: Test B pre-/postemergence herbicide test; assay type: in vivo, Xanthium strumarium
Procedure, shortened: as §5

[21] = system: wheat; experiment: Test B postemergence herbicide test; assay type: in vivo, Triticum aestivum; design: key to Wheat plant response rating: 0 = no effect, 100 = complete control; conditions: scale 0 (no effect) to 100 (complete control)
Procedure, shortened: as §4

[22] = system: ducksalad; experiment: Test B flooded paddy test; assay type: in vivo, Heteranthera limosa; conditions: 1000 g ai/ha, visual rating, scale 0 to 100 (0 no effect, 100 complete control), 13 to 15 days
Procedure, shortened: as §2

[23] = system: large crabgrass; experiment: Test B pre-/postemergence herbicide test; assay type: in vivo, Digitaria sanguinalis
Procedure, shortened: as §1

[24] = 500 g ai/ha, visual rating 0-100, 0 no effect, 100 complete control, preemergence
[25] = Postemergence, 500 g ai/ha, visual rating after 13 to 15 days, scale 0 (no effect) to 100 (complete control)
[26] = postemergence, 125 g ai/ha, visual rating, scale 0 (no effect) to 100 (complete control)
[27] = preemergence, 125 g ai/ha, 0 to 100 scale, 0 is no effect, 100 is complete control
[28] = Postemergence, 125 g ai/ha, 0 to 100 scale, 0 no effect, 100 complete control
[29] = Postemergence, 500 g ai/ha, 0 to 100 scale, 0 no effect, 100 complete control
[30] = Preemergence, 500 g ai/ha, visual rating, 0 to 100 scale (0 no effect, 100 complete control)
[31] = preemergence, 125 g ai/ha, visual injury, 0 to 100 scale (0 no effect, 100 complete control)
[32] = Postemergence, 500 g ai/ha, visual rating after 13 to 15 days
[33] = postemergence, 125 g ai/ha, visual rating

CC(=NO)c1cccc(NC(=O)c2cc(C(C)(C)C)nn2C(C)C)c1 [Compound 110]
Plant response rating, Corn [1, 24]: 0 | Plant response rating, Corn [1, 25]: 20 | Corn plant response rating [1, 26]: 10 | Plant response rating, Corn [1, 27]: 0 | Barnyardgrass plant response rating [2]: 30 | Morningglory plant response rating [3, 28]: 0 | Morningglory plant response rating [3, 29]: 10 | Morningglory plant response rating [3, 30]: 20 | Morningglory plant response rating [3, 31]: 10 | Foxtail, Giant plant response rating [4, 28]: 20 | Foxtail, Giant plant response rating [4, 29]: 25 | Foxtail, Giant plant response rating [4, 30]: 0 | Foxtail, Giant plant response rating [4, 31]: 0 | Plant response rating, Velvetleaf [5, 24]: 10 | Plant response rating, Velvetleaf [5, 25]: 40 | Velvetleaf plant response rating [5, 26]: 30 | Plant response rating, Velvetleaf [5, 27]: 0 | Plant response rating, Pigweed [6, 24]: 10 | Plant response rating, Pigweed [6, 25]: 50 | Pigweed plant response rating [6, 26]: 20 | Plant response rating, Pigweed [6, 27]: 0 | Plant response rating, Lambsquarters [7, 24]: 90 | Plant response rating, Lambsquarters [7, 25]: 60 | Lambsquarters plant response rating [7, 26]: 40 | Plant response rating, Lambsquarters [7, 27]: 20 | Barnyardgrass plant response rating [8, 28]: 30 | Barnyardgrass plant response rating [8, 29]: 30 | Barnyardgrass plant response rating [8, 30]: 5 | Barnyardgrass plant response rating [8, 31]: 10 | Pigweed plant response rating [9, 28]: 40 | Pigweed plant response rating [9, 29]: 50 | Pigweed plant response rating [9, 30]: 10 | Pigweed plant response rating [9, 31]: 10 | Plant response rating, Oat, Wild [10, 32]: 0 | Oat, Wild plant response rating [10, 33]: 0 | Rice plant response rating [11]: 20 | Crabgrass, Large plant response rating [12, 28]: 25 | Crabgrass, Large plant response rating [12, 29]: 30 | Crabgrass, Large plant response rating [12, 30]: 20 | Crabgrass, Large plant response rating [12, 31]: 15 | Plant response rating, Foxtail, Giant [13, 24]: 20 | Plant response rating, Foxtail, Giant [13, 25]: 10 | Foxtail, Giant plant response rating [13, 26]: 10 | Plant response rating, Foxtail, Giant [13, 27]: 10 | Velvetleaf plant response rating [14, 28]: 10 | Velvetleaf plant response rating [14, 29]: 10 | Velvetleaf plant response rating [14, 30]: 10 | Velvetleaf plant response rating [14, 31]: 10 | Sedge, Umbrella plant response rating [15]: 20 | Plant response rating, Morningglory [16, 24]: 60 | Plant response rating, Morningglory [16, 25]: 30 | Morningglory plant response rating [16, 26]: 20 | Plant response rating, Morningglory [16, 27]: 20 | Plant response rating, Surinam Grass [17, 24]: 10 | Plant response rating, Surinam Grass [17, 25]: 30 | Surinam Grass plant response rating [17, 26]: 20 | Plant response rating, Surinam Grass [17, 27]: 10 | Plant response rating, Blackgrass [18, 32]: 0 | Blackgrass plant response rating [18, 33]: 0 | Plant response rating, Barnyardgrass [19, 24]: 10 | Plant response rating, Barnyardgrass [19, 25]: 20 | Barnyardgrass plant response rating [19, 26]: 10 | Plant response rating, Barnyardgrass [19, 27]: 10 | Plant response rating, Cocklebur [20, 24]: 10 | Plant response rating, Cocklebur [20, 25]: 40 | Cocklebur plant response rating [20, 26]: 10 | Plant response rating, Cocklebur [20, 27]: 0 | Plant response rating, Wheat [21, 32]: 30 | Wheat plant response rating [21, 33]: 10 | Ducksalad plant response rating [22]: 0 | Plant response rating, Crabgrass, Large [23, 24]: 100 | Plant response rating, Crabgrass, Large [23, 25]: 20 | Crabgrass, Large plant response rating [23, 26]: 10 | Plant response rating, Crabgrass, Large [23, 27]: 80
